# Data published in US20260263550A1, “METHODS AND COMPOSITIONS FOR TREATING, PREVENTING, INHIBITING, AMELIORATING OR DELAYING THE ONSET OF OPHTHALMIC CONDITIONS” (Stealth BioTherapeutics Inc., priority 2021, published 2026).
# How the values were obtained:
# [1] = Uptake in plasma and compartments of the eye in a rabbit model (subcutaneous or topical ocular dosing); type: in vivo, Dutch Belted Rabbits
# Experimental: 3 mg/mL elamipretide or compound of Formula IIa in saline was dosed subcutaneously at 1.5 mg/kg. A 3 mg/mL elamipretide or compound of Formula IIa formulation was prepared by dissolving 81 mg elamipretide in a total volume of 27 mL of sterile saline and mixing well. • (ii) Groups 2 & 4: Topical Ocular Formulation for administration of elamipretide or compound of Formula IIa
# For each preparation (i.e., elamipretide or compound of Formula IIa, sodium chloride (105 mg) was dissolved in 16 mL of water for injection with mixing. With mixing, 82.8 mg of sodium phosphate monobasic, monohydrate was then added. With mixing, 0.400 mL of a 5 mg/mL benzalkonium chloride solution in water (to be prepared by diluting 0.100 mL of a 50% benzalkonium chloride solution in water to 10 mL with water for injection) was then added. Two hundred (200) mg of elamipretide or compound of Formula IIa was then added with mixing and the formulation pH was adjusted to 5.8 (+/−0.1) with 1 M sodium hydroxide in water solution. The final volume of the formulation was then be brought to 20 mL using water for injection. Each formulation (elamipretide or compound of Formula IIa) was used for topical ocular administration at a dose of 50 μL/eye OU.
# A total of 48 male Dutch Belted Rabbits were used in the study. Each animal was approximately 2 kg.
# For subcutaneous administration, rabbits were dosed via a single subcutaneous injection of 1.5 mg/kg and at the scruff of the neck between the shoulder blades using a syringe with an attached 27G×½ inch needle (or similar). The site of injection was checked to ensure no leakage of dose immediately following administration.
# For topical administration, a calibrated Gilson positive displacement pipette was used to administer 50 μL of formulation onto the globe the eye while the lower eyelid was pulled away from the globe. Administration was twice daily (i.e., BID). Doses were administered to both eyes, every 8 to 12 hours for 11 total doses.
# Terminal blood samples (approximately 6 mL) were collected from two animals/group/timepoint via the central ear artery at approximately 0.5, 1, 2, 4, 8, and 24 hours postdose. Blood samples were collected into tubes containing K2EDTA as the anticoagulant and inverted several times to ensure adequate mixing of blood and anticoagulant and placed on ice. Within 30 min of collection, samples were centrifuged to harvest plasma and stored at −80° C. until analyzed.
# Following blood collection, designated animals were euthanized by barbiturate overdose. Following euthanasia, both eyes of each rabbit were harvested and dissected for collection of ocular tissue and fluid. Optic nerve and retina were collected from Group 1 and 3 animals, and aqueous humor, retina, conjunctiva, cornea, sclera, and optic nerve were collected from Group 2 and 4 animals. Following dissection, all fluids and tissues were placed in pre-tared tubes, weight collected, and then flash frozen on dry ice and placed in a freezer at −80° C. or lower until analyzed. Concentrations of test article in plasma in the ocular tissues (ng/g tissue) and fluids (ng/mL fluid) were determined utilizing a method previously developed by the CRO.
# [2] = system: iPSC-derived RPE cells from AMD donors; assay: Cell viability assay on nitrite-modified ECM (Real Time-Glo MT Cell Viability Assay); type: cell-based, human; conditions: 10, 100, 1000 nM; 24 hours; versus vehicle-treated cells; FIG. 8J, *p<0.05
# Experimental: (§1) General. iPSC-derived RPE were generated from AMD patients (2 atrophic; 1 exudative) and patients with no history of AMD (n=3). To test the therapeutic efficacy of elamipretide and compound of Formula IIa, cell viability was analyzed on nitrite-modified extracellular matrix (ECM), a typical modification of aged Bruch's membrane, for 24 hrs. DNA microarrays were used to elucidate gene expression in AMD-derived RPE cultured on nitrite-modified ECM.
# Preparation of RPE cell-derived ECM and nitrite-modified ECM RPE cell-derived ECM plates were prepared from ARPE-19 cells as described in Wang et al., Curr Eye Res. 30:691-702 (2005); Fields et al. (2017); and Moreira et al., Transl Vis Sci Technol. 4:10 (2015). ECM on 96-well plates were used to create two experimental plating surfaces (nontreated ECM and nitrite-modified ECM). Nitrite-modified ECM was prepared by adding 100 mM sodium nitrite to ECM followed by incubation at 37° C. for 7 days. Plates were then washed with DPBS and incubated with DPBS for 4 hours to completely remove the nitrite. […]
# Cell viability was measured by Real Time-Glo MT Cell Viability Assay (Promega, Madison, WI, www.promega.com) according to the manufacturer's protocol. […] Luminescent signals were acquired using a BioTek FLx800 plate reader (BioTek).
# [3] = system: iPSC-derived RPE cells from AMD donors; assay: Microarray analysis of gene expression on in vitro Bruch's membrane model; type: cell-based, human; conditions: AMD-derived RPE on nitrite-modified ECM, 10, 100, 1000 nM, 24 hours
# Experimental: as §1
# Microarray analysis. iPSC-derived RPE cells from AMD donors (n=3; 2 atrophic with GA, 1 exudative) were treated with drug (elamipretide or compound of Formula IIa) as described below and cultured on an in vitro Bruch's membrane model for 24 hours.
# • AMD donors only (n=3 individual donors) • Cells treated with elamipretide (also referred to as “309” in the figures) at 10 nM, 100 nM and 1000 nM • Cells treated with compound of Formula IIa (also referred to as “146c” in the figures) at 10 nM, 100 nM, 1000 nM
# Microarray studies using Affymetrix GeneChip Human Clariom™ S Assay were performed as described in Gong et al. (2020).
# [4] = system: iPSC-derived RPE cells from AMD donors; assay: Measurement of mitochondrial function (Seahorse XF Cell Mito Stress Test); type: cell-based, human; conditions: 10, 100, 1000 nM, treatment began 24 hours prior to assay, FIGS. 8AA-8AL
# Experimental: Measurement of mitochondrial function. Analysis of mitochondrial function was performed on live iPSC-derived RPE cells from AMD donors (n=3; 2 atrophic with GA, 1 exudative) treated with drug (elamipretide, compound of Formula IIa, or vehicle) as described below and iPSC-derived RPE cells from non-diseased controls (n=2) using the XFe96 Extracellular Flux Analyzer (Agilent Technologies, Santa Clara, California, www.agilent.com) and the Seahorse XF Cell Mito Stress Test (CMST) Kit (Agilent Technologies). iPSC-derived RPE cells were seeded onto a laminin-coated Seahorse XF plates and grown until confluent. Data were normalized by cell count. Drug treatments began 24 hours prior to assay. […]
# Cells were stained with DAPI and counted by ImageJ software (National Institute of Health, Bethesda, Maryland, www.nih.gov). […] Oxygen consumption rate was detected under basal conditions followed by the sequential addition of oligomycin, carbonyl cyanide 4-(trifluoromethoxy) phenylhydrazone (FCCP), rotenone, and antimycin A. From these sequential additions, the following parameters can be derived: basal respiration, ATP production, maximal respiration, and spare respiratory capacity.
# [5] = at 24 weeks of treatment; Pieramici & Ehlers, slide 15; cited from earlier work
substance,measurement,setting,value
elamipretide [reference compound],"concentration in plasma, elamipretide compared with compound of Formula IIa","[1]; SC 1.5 mg/kg single dose or topical eye drops BID, 11 doses, FIGS. 1A, 1B",roughly equivalent
same,"concentration accumulated in the retina, compared with the other test article","[1]; regardless of mode of administration (topical or subcutaneous), FIGS. 2A, 2B",much lower
same,AMD-derived RPE cell viability on nitrite-modified ECM,[2],significantly enhanced
same,expression of complement regulatory genes including CFHR2,[3]; FIG. 8S,increase expression
same,"expression of complement component genes (C1R, C3, C4A) increased by nitration of ECM",[3]; FIGS. 8L-8P,reverse this trend
same,"expression of mitochondrial-related genes, such as CYP24A1 and GLS",[3]; FIGS. 8W-8Z,altered the expression
same,mitochondrial function (ATP production; basal respiration; maximal respiration; spare respiratory capacity),[4],efficacy in improving mitochondrial function
same,Average BCVA and LLVA in NCGA and HRD patients,[5],improved significantly
